From patent US10501481B2, “Heterocyclic compounds and their use in preventing or treating bacterial infections” (priority 2015, dated 2019)

Columns and labels:
[1] = system: K. pneumoniae 160143 (TEM-1, SHV-1, CTX-M-15, KPC-2, OXA-1); assay: MIC broth microdilution, alone and synergy with ceftazidime; settings: for MIC of CAZ in combination with compound at 4 μg/mL: strain 160143, compound fixed at 4 μg/mL
OXA-1 = molecular target: T1, OXA-1 (Escherichia coli, UniProt P13661); assay: β-lactamase inhibitory activity, nitrocefin hydrolysis; format: biochemical
T1 construct: made in house; host or cells: E. coli
T1 sequence (P13661 26-276): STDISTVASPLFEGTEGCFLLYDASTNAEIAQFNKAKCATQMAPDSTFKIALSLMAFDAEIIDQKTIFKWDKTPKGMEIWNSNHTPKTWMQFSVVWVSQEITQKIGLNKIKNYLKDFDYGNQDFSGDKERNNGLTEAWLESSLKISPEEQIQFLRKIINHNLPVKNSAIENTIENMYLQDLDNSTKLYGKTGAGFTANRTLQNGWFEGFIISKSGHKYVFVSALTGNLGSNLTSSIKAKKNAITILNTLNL
Method: (§1) Enzyme activity was monitored by spectrophotometric measurement of nitrocefin (NCF-TOKU-E, N005) hydrolysis at 485 nm, at room temperature and in assay buffer A: 100 mM Phosphate pH7, 2% glycerol and 0.1 mg/mL Bovine serum albumin (Sigma, B4287). […] To a transparent polystyrene plate (Corning, 3628) were added in each well 5 μL DMSO or inhibitor dilutions in DMSO and 80 μL enzyme in buffer A. Plates were immediately read at 485 nm in a microplate spectrophotometer (BioTek, PowerWave HT) to enable background subtraction. After 30 min of pre-incubation at room temperature, 15 μL of NCF (200 μM final) were finally added in each well. Final enzyme concentrations were 0.1 nM (TEM-1), 0.075 nM (SHV-1), 0.4 nM (CTX-M-15), 1 nM (KPC-2), 0.2 nM (P99 AmpC), 0.2 nM (CMY-37), 0.4 nM (AmpC P. aeruginosa), 0.2 nM (OXA-1), 1.2 nM (OXA-11), 0.4 nM (OXA-15) and 0.3 nM (OXA-48). After 20 min incubation at room temperature, plates were once again read at 485 nm. Enzyme activity was obtained by subtracting the final signal by the background, and was converted to enzyme inhibition using non inhibited wells. IC50 curves were fitted to a classical Langmuir equilibrium model with Hill slope using XLFIT (IDBS).

[2] = system: E. coli UFR18 (CTX-M-15, OXA-204); assay: MIC broth microdilution, alone and synergy with ceftazidime; settings: for MIC: Escherichia coli, read-out: MIC compounds of the invention alone; for MIC of CAZ in combination with compound at 4 μg/mL: strain UFR18, compound fixed at 4 μg/mL
[3] = system: E. coli UFR74 (SHV-1, DHA-1); assay: as above; settings: for MIC of CAZ in combination with compound at 4 μg/mL: strain UFR74, compound fixed at 4 μg/mL; for MIC: Escherichia coli, read-out: MIC compounds of the invention alone
P99 AmpC = molecular target: T2, P99 AmpC (Enterobacter cloacae, UniProt P05364); assay: β-lactamase inhibitory activity, nitrocefin hydrolysis; format: biochemical; settings: class (C); 30 min pre-incubation; nitrocefin 200 μM
T2 construct: made in house; host or cells: E. coli
T2 sequence (P05364 21-381): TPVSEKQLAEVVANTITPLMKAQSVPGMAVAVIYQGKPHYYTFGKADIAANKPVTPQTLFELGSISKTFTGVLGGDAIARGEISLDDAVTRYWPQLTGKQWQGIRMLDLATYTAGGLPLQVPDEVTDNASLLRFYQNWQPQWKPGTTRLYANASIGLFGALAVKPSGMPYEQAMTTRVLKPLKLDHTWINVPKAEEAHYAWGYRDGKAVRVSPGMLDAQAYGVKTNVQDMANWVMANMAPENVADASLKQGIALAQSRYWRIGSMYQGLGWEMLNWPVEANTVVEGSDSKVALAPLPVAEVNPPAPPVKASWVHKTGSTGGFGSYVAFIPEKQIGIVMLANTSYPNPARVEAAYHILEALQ
Method: as §1

AmpC P. aeruginosa = AmpC P. aeruginosa (Pseudomonas aeruginosa, UniProt P24735); assay: biochemical
Chain of AmpC P. aeruginosa (P24735 27-397): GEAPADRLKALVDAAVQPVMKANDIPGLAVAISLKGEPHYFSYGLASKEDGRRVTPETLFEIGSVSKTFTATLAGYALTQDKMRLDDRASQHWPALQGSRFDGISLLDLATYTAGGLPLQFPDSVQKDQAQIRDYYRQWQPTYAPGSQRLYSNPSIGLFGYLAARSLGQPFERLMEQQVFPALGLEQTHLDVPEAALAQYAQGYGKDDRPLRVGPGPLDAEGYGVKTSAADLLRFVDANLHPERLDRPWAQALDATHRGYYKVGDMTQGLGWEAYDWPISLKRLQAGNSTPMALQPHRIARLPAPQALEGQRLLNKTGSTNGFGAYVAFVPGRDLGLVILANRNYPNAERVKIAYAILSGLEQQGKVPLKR
Method: Enzyme activity was monitored by spectrophotometric measurement of nitrocefin (NCF-TOKU-E, N005) hydrolysis at 485 nm, at room temperature and in assay buffer A: 100 mM Phosphate pH7, 2% glycerol and 0.1 mg/mL Bovine serum albumin (Sigma, B4287). Enzymes were cloned in E. coli expression vector, expressed and purified in house using classical procedures. To a transparent polystyrene plate (Corning, 3628) were added in each well 5 μL DMSO or inhibitor dilutions in DMSO and 80 μL enzyme in buffer A. Plates were immediately read at 485 nm in a microplate spectrophotometer (BioTek, PowerWave HT) to enable background subtraction. After 30 min of pre-incubation at room temperature, 15 μL of NCF (200 μM final) were finally added in each well. Final enzyme concentrations were 0.1 nM (TEM-1), 0.075 nM (SHV-1), 0.4 nM (CTX-M-15), 1 nM (KPC-2), 0.2 nM (P99 AmpC), 0.2 nM (CMY-37), 0.4 nM (AmpC P. aeruginosa), 0.2 nM (OXA-1), 1.2 nM (OXA-11), 0.4 nM (OXA-15) and 0.3 nM (OXA-48). After 20 min incubation at room temperature, plates were once again read at 485 nm. Enzyme activity was obtained by subtracting the final signal by the background, and was converted to enzyme inhibition using non inhibited wells. IC50 curves were fitted to a classical Langmuir equilibrium model with Hill slope using XLFIT (IDBS).

E. coli RGN238 (OXA-1) = assay: MIC broth microdilution, alone and synergy with ceftazidime; settings: for MIC: Escherichia coli, read-out: MIC compounds of the invention alone; for MIC of CAZ in combination with compound at 4 μg/mL: strain RGN238, compound fixed at 4 μg/mL
[4] = system: K. pneumoniae UFR24 (TEM-1, SHV-2, SHV-11, OXA-1, OXA-48, OXA-47); assay: as above; settings: for MIC of CAZ in combination with compound at 4 μg/mL: strain UFR24, compound fixed at 4 μg/mL
[5] = system: E. cloacae UFR38 (CTX-M-15, NDM-1); assay: as above; settings: for MIC: Enterobacter cloacae, read-out: MIC compounds of the invention alone; for MIC of CAZ in combination with compound at 4 μg/mL: strain UFR38, compound fixed at 4 μg/mL
[6] = system: P. aeruginosa CIP107051 (TEM-24); assay: as above; settings: for MIC: Pseudomonas aeruginosa, CIP107051, read-out: MIC compounds of the invention alone; for MIC of CAZ in combination with compound at 4 μg/mL: strain CIP107051, compound fixed at 4 μg/mL
[7] = system: K. oxytoca UFR21 (TEM-1, CTX-M-15, OXA-48); assay: as above; settings: for MIC: Klebsiella oxytoca, read-out: MIC compounds of the invention alone; for MIC of CAZ in combination with compound at 4 μg/mL: strain UFR21, compound fixed at 4 μg/mL
OXA-11 = molecular target: T3, OXA-11 (Pseudomonas aeruginosa, UniProt Q06778); assay: β-lactamase inhibitory activity, nitrocefin hydrolysis; format: biochemical
T3 construct: made in house; host or cells: E. coli
T3 sequence (Q06778 21-266): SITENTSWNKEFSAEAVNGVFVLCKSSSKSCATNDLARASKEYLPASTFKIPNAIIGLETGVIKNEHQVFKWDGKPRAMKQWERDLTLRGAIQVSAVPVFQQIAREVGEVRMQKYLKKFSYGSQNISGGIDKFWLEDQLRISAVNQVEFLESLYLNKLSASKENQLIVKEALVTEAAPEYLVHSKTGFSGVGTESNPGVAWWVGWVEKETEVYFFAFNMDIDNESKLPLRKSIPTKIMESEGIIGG
Method: as §1

[8] = system: E. coli UFR61O (TEM-1, KPC-2); assay: MIC broth microdilution, alone and synergy with ceftazidime; settings: for MIC of CAZ in combination with compound at 4 μg/mL: strain UFR61O, compound fixed at 4 μg/mL; for MIC: Escherichia coli, read-out: MIC compounds of the invention alone
[9] = system: K. pneumoniae 6299 (TEM-1, SHV-11, OXA-163); assay: as above; settings: for MIC: Klebsiella pneumoniae, read-out: MIC compounds of the invention alone; for MIC of CAZ in combination with compound at 4 μg/mL: strain 6299, compound fixed at 4 μg/mL
CTX-M-15 = molecular target: T4, CTX-M-15 (Escherichia coli, UniProt Q9EXV5); assay: β-lactamase inhibitory activity, nitrocefin hydrolysis; format: biochemical
T4 construct: made in house; host or cells: E. coli
T4 sequence (Q9EXV5 entry or part of it): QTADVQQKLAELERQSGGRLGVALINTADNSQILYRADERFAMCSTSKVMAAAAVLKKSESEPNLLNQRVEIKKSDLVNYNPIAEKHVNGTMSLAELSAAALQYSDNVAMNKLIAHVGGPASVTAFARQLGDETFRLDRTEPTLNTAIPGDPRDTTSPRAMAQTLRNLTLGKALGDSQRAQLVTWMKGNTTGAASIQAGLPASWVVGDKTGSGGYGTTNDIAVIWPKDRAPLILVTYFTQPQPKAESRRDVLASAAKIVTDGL
Method: as §1

OXA-48 = molecular target: T5, OXA-48 (Klebsiella pneumoniae, UniProt Q6XEC0); assay: as above; format: biochemical
T5 construct: made in house; host or cells: E. coli
T5 sequence (Q6XEC0 23-265 limits assumed): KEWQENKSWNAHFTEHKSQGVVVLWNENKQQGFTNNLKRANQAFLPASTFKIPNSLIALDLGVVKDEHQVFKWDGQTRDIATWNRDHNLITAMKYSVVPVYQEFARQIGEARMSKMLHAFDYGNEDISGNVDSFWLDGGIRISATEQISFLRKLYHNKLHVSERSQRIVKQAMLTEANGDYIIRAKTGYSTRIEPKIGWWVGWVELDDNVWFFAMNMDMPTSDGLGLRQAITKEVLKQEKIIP
Method: as §1

[10] = system: E. coli 131119 (TEM-1, OXA-48); assay: MIC broth microdilution, alone and synergy with ceftazidime; settings: for MIC: Escherichia coli, read-out: MIC compounds of the invention alone; for MIC of CAZ in combination with compound at 4 μg/mL: strain 131119, compound fixed at 4 μg/mL
[11] = system: K. pneumoniae 200047 (TEM-1, SHV-32, CTX-M-15, OXA-1); assay: as above; settings: for MIC: Klebsiella pneumoniae, read-out: MIC compounds of the invention alone; for MIC of CAZ in combination with compound at 4 μg/mL: strain 200047, compound fixed at 4 μg/mL
[12] = system: K. pneumoniae BAA-1898 (TEM-1, SHV-11, SHV-12, KPC-2); assay: microbe, parasite or virus in culture; format: cell-based; settings: for MIC: Klebsiella pneumoniae, BAA1898, read-out: MIC compounds of the invention alone; for MIC of CAZ in combination with compound at 4 μg/mL: strain BAA-1898, compound fixed at 4 μg/mL
[13] = system: E. cloacae UFR70 (TEM-1, CTX-M-15, CMY-2, OXA-1, Porin loss); assay: MIC broth microdilution, alone and synergy with ceftazidime; settings: for MIC: Enterobacter cloacae, read-out: MIC compounds of the invention alone; for MIC of CAZ in combination with compound at 4 μg/mL: strain UFR70, compound fixed at 4 μg/mL
KPC-2 = molecular target: T6, KPC-2 (Klebsiella pneumoniae, UniProt Q9F663); assay: β-lactamase inhibitory activity, nitrocefin hydrolysis; format: biochemical
T6 construct: made in house; host or cells: E. coli
T6 sequence (Q9F663 25-293 limits assumed): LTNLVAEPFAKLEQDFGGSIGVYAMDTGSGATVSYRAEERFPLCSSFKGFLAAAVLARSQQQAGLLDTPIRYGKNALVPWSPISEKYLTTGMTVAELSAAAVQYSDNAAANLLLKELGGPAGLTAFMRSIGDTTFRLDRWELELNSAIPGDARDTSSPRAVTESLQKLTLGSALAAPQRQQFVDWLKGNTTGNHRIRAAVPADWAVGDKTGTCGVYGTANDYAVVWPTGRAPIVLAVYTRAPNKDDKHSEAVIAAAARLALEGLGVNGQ
Method: as §1

[14] = system: K. pneumoniae UFR68 (TEM-1, SHV-11, CTX-M-15, KPC-3); assay: MIC broth microdilution, alone and synergy with ceftazidime; settings: for MIC: Klebsiella pneumoniae, read-out: MIC compounds of the invention alone; for MIC of CAZ in combination with compound at 4 μg/mL: strain UFR68, compound fixed at 4 μg/mL
SHV-1 = molecular target: T7, SHV-1 (Klebsiella pneumoniae, UniProt P0AD64); assay: β-lactamase inhibitory activity, nitrocefin hydrolysis; format: biochemical
T7 construct: made in house; host or cells: E. coli
T7 sequence (P0AD64 22-286): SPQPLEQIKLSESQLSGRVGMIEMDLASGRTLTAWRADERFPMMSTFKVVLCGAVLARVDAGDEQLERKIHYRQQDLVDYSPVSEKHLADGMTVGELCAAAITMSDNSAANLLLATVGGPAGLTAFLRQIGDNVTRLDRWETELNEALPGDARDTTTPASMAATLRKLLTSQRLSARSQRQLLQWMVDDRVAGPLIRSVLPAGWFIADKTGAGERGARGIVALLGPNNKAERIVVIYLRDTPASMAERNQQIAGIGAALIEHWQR
Method: as §1

[15] = Klebsiella pneumoniae, read-out: MIC compounds of the invention alone

Compound | MIC of CAZ in combination with compound at 4 μg/mL [1] [µg/mL] | IC50 (OXA-1) [nM] | MIC [2] [µg/mL] | MIC of CAZ in combination with compound at 4 μg/mL [2] [µg/mL] | MIC of CAZ in combination with compound at 4 μg/mL [3] [µg/mL] | IC50 (P99 AmpC) [nM] | IC50 (AmpC P. aeruginosa) [nM] | MIC (E. coli RGN238 (OXA-1)) [µg/mL] | MIC of CAZ in combination with compound at 4 μg/mL (E. coli RGN238 (OXA-1)) [µg/mL] | MIC of CAZ in combination with compound at 4 μg/mL [4] [µg/mL] | MIC [5] [µg/mL] | MIC of CAZ in combination with compound at 4 μg/mL [5] [µg/mL] | MIC [6] [µg/mL] | MIC of CAZ in combination with compound at 4 μg/mL [6] [µg/mL] | MIC [7] [µg/mL] | MIC of CAZ in combination with compound at 4 μg/mL [7] [µg/mL] | IC50 (OXA-11) [nM] | MIC of CAZ in combination with compound at 4 μg/mL [8] [µg/mL] | MIC [9] [µg/mL] | MIC of CAZ in combination with compound at 4 μg/mL [9] [µg/mL] | further results
Cn1c2c(sc1=O)C1CN(C2)C(=O)N1OS(=O)(=O)[O-].[Na+] (centres unmarked) [Example 1, Sodium (5-methyl-4,9-dioxo-3-thia-5,8,10-triaza-tricyclo[6.2.1.0^2.6]undec-2(6)-en-10-yl) sulfate] | 0.5 | 63 | 4 | <0.25 | <0.25 | 48 | 190 | 2 | <0.25 | 4 | 8 | >128 | > 128 | 4 | 8 | 2 | 40 | <0.25 | 16 | 4 | IC50 (CTX-M-15): 0.69 nM; IC50 (OXA-48): 0.89 nM; MIC [10]: 1 µg/mL; MIC of CAZ in combination with compound at 4 μg/mL [10]: <0.25 µg/mL; MIC [11]: 4 µg/mL; MIC of CAZ in combination with compound at 4 μg/mL [11]: <0.25 µg/mL; MIC [12]: 16 µg/mL; MIC of CAZ in combination with compound at 4 μg/mL [12]: 64 µg/mL; MIC [13]: 4 µg/mL; MIC of CAZ in combination with compound at 4 μg/mL [13]: <0.25 µg/mL; IC50 (KPC-2): 3.3 nM; MIC [14]: 32 µg/mL; MIC of CAZ in combination with compound at 4 μg/mL [14]: 64 µg/mL; IC50 (SHV-1): 12 nM
COC(=O)Cn1c2c(sc1=O)C1CN(C2)C(=O)N1OS(=O)(=O)[O-].[Na+] (centres unmarked) [Example 2, Sodium [5-(2-methoxy-2-oxo-ethyl)-4,9-dioxo-3-thia-5,8,10-triaza-tricyclo[6.2.1.0^2.6]undec-2(6)-en-10-yl] sulfate] | 8 | 38 | 4 | 0.5 | 1 | 16 | 220 | 1 | <0.25 | 4 | 8 | >128 | > 32 | 16 | 8 | 16 | 4.1 | <0.25 | 8 | 4 | MIC [1, 15]: 16 µg/mL; MIC [3]: 8 µg/mL; MIC [4, 15]: 16 µg/mL; MIC [8]: 8 µg/mL; IC50 (CTX-M-15): 1.1 nM; IC50 (OXA-48): 0.67 nM; MIC [10]: 2 µg/mL; MIC of CAZ in combination with compound at 4 μg/mL [10]: <0.25 µg/mL; MIC of CAZ in combination with compound at 4 μg/mL [11]: <0.25 µg/mL; MIC [12]: 32 µg/mL; MIC of CAZ in combination with compound at 4 μg/mL [13]: 1 µg/mL; IC50 (KPC-2): 1.3 nM; MIC [14]: 32 µg/mL; MIC of CAZ in combination with compound at 4 μg/mL [14]: 32 µg/mL; IC50 (SHV-1): 1.3 nM
NCCn1c2c(sc1=O)C1CN(C2)C(=O)N1OS(=O)(=O)[O-].[Na+] (centres unmarked) [Example 4, Sodium and 2,2,2-trifluoroacetate [5-(2-azaniumethyl)-4,9-dioxo-3-thia-5,8,10-triaza-tricyclo[6.2.1.0^2.6]undec-2(6)-en-10-yl] sulfate] | ≤0.25 | 460 | 0.5 | <0.25 | ≤0.25 | 140 | 1200 | 8 | <0.25 | ≤0.25 | 0.5 | <0.25 | 16 | 4 | 4 | <0.25 | 82 | <0.25 | 32 | ≤0.125 | MIC [3]: 16 µg/mL; MIC [8]: 4 µg/mL; IC50 (CTX-M-15): 1.3 nM; IC50 (OXA-48): 4.1 nM; MIC [10]: 2 µg/mL; MIC of CAZ in combination with compound at 4 μg/mL [10]: <0.25 µg/mL; MIC [11]: 8 µg/mL; MIC of CAZ in combination with compound at 4 μg/mL [11]: <0.25 µg/mL; MIC [12]: 16 µg/mL; MIC of CAZ in combination with compound at 4 μg/mL [12]: ≤0.125 µg/mL; MIC [13]: 4 µg/mL; MIC of CAZ in combination with compound at 4 μg/mL [13]: <0.25 µg/mL; IC50 (KPC-2): 7.4 nM; MIC of CAZ in combination with compound at 4 μg/mL [14]: <0.25 µg/mL; IC50 (SHV-1): 21 nM
